Assay results: ChEMBL document CHEMBL1126452, “Synthesis of stereochemically defined phosphonamidate-containing peptides: Inhibitors for the HIV-1 proteinase” (Bioorg Med Chem Lett, 1992)

Each compound was assayed against Human immunodeficiency virus type 1 protease (Human immunodeficiency virus 1, UniProt Q72874) (assay: Inhibitory concentration against HIV-1 Protease at pH 5.6 and at 37 degrees C).

Row | SMILES | IC50 [µM]
1 | CCC(C)[C@H](NC(=O)[C@@H]1CCCN1P(=O)(O)C(Cc1ccccc1)NC(=O)[C@H](CC(N)=O)NC(=O)OC(C)(C)C)C(=O)NCC(C)C (stereo not given in full) | 118
2 | CCC(C)[C@H](NC(=O)[C@@H]1CCCN1P(=O)(OC)C(Cc1ccccc1)NC(=O)[C@H](CC(N)=O)NC(=O)OC(C)(C)C)C(=O)NCC(C)C (single isomer, unassigned) | 43.2
3 | CCC(C)[C@H](NC(=O)[C@@H]1CCCN1P(=O)(OC)[C@@H](Cc1ccccc1)NC(=O)[C@H](CC(N)=O)NC(=O)OC(C)(C)C)C(=O)NCC(C)C (single isomer, unassigned) | 576
4 | CCC(C)[C@H](NC(=O)[C@@H]1CCCN1P(=O)(OC)[C@H](Cc1ccccc1)NC(=O)[C@H](CC(N)=O)NC(=O)OC(C)(C)C)C(=O)NCC(C)C (single isomer, unassigned; 2a) | 141
5 | CCC(C)[C@H](NC(=O)[C@@H]1CCCN1P(=O)(OC)[C@H](Cc1ccccc1)NC(=O)[C@H](CC(N)=O)NC(=O)OC(C)(C)C)C(=O)NCC(C)C (single isomer, unassigned; 2d) | 134
